The experiment concerns the target T1, LmxCLK1 (Leishmania mexicana, UniProt E9AMP2).
T1 sequence (E9AMP2 1-422): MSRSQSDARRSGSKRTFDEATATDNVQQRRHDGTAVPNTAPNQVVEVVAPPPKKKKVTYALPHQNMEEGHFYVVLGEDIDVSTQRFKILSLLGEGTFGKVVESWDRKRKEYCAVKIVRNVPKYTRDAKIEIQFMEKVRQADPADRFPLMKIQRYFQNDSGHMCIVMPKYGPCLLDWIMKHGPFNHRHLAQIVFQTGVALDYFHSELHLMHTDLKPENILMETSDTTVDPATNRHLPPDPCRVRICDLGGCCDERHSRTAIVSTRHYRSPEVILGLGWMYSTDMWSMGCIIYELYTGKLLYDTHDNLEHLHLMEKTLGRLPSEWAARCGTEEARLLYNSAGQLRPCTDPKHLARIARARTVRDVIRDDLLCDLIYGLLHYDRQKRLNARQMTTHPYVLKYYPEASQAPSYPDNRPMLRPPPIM
Nature of the experiment: biochemical. It is filed as binding.

[1] abbreviates: DSF, 10 µM compound, 2 µM LmxCLK1, Run 1, read-out: ΔTm Run 1.
[2] abbreviates: DSF, 10 µM compound, 2 µM LmxCLK1, Run 2, read-out: ΔTm Run 2.
[3] abbreviates: DSF, 10 µM compound, 2 µM LmxCLK1, mean of two runs, read-out: ΔTm Average.
Where [4] appears, read: DSF, 10 µM compound, 2 µM LmxCLK1, Run 1.
The mark [5] stands for this setting: DSF, 10 µM compound, 2 µM LmxCLK1, Run 2.
Setting [6] is: DSF, 10 µM compound, 2 µM LmxCLK1, mean of two runs.

The ΔTm is the shift of the melting midpoint relative to a reference.

Where two headings read alike, the source gives them in different places.

Take `CNc1nc(-c2ccc3c(N)n[nH]c3c2)cc(N2C[C@@H](C(=O)NC3CCCCC3)CC[C@H]2C)n1` [GSK2334470]: the shift in melting temperature (ΔTm) at 10 µM is 0.3 °C under setting [1], -0.5 °C under setting [2] and -0.1 °C under setting [3].

Take `O=c1c(-c2ccc(O)cc2)coc2cc(O)cc(O)c12` [Genistein]: the shift in melting temperature (ΔTm) at 10 µM under setting [1] was found to be 0.2 °C, the ΔTm at 10 µM under setting [2] was found to be 0.3 °C and the ΔTm at 10 µM under setting [3] came out at 0.2 °C.

On to `CN1CCN(C2CCN(C(=O)Nc3cc(Oc4ccc(NC(=O)C5(C(=O)Nc6ccc(F)cc6)CC5)c(F)c4)ccn3)CC2)CC1` [Golvatinib (E7050)], for which the ΔTm at 10 µM is, setting by setting: (read-out: ΔTm Average) 0.6 °C; (read-out: ΔTm Run 1) 0.5 °C; (read-out: ΔTm Run 2) 0.7 °C.

On to `Cl.Cl.O=S(=O)(NCCNC/C=C/c1ccc(Br)cc1)c1cccc2cnccc12` [H 89 2HCl], for which, under setting [4], the “ΔTm Run 1” value was found to be 0.2 °C. Also, the “ΔTm Run 2” value under setting [5] is -0.1 °C. Also, the “ΔTm Average” value under setting [6] is 0.0 °C.

As to `COc1ccc(S(=O)(=O)N(C(C)=O)c2ccccc2/C=C/c2cc[n+]([O-])cc2)cc1` [HMN-214], the ΔTm at 10 µM reads like this: under setting [1], 0.4 °C; under setting [2], 0.1 °C; under setting [3], 0.2 °C.

For `CCS(=O)(=O)Nc1ccc2c(c1)/C(=C(/Nc1ccc(CN3CCCCC3)cc1)c1ccccc1)C(=O)N2` [Hesperadin], the ΔTm at 10 µM under setting [1] came out at 1.7 °C, the ΔTm at 10 µM under setting [2] turned out to be 1.3 °C and the shift in melting temperature (ΔTm) at 10 µM under setting [3] amounted to 1.5 °C.

As to `C=CCc1ccc(O)c(-c2ccc(O)c(CC=C)c2)c1` [Honokiol], the ΔTm at 10 µM is -0.2 °C under setting [1], 0.2 °C under setting [2] and 0 °C under setting [3].

Consider `O=C(Nc1cc(C(F)(F)F)cc(C(F)(F)F)c1)c1cc(Cl)ccc1O` [IMD 0354], for which the ΔTm at 10 µM was 0.2 °C under setting [1], -0.1 °C under setting [2] and 0 °C under setting [3].

As to `C=CC(=O)N1CCC[C@@H](n2nc(-c3ccc(Oc4ccccc4)cc3)c3c(N)ncnc32)C1` [Ibrutinib (PCI-32765)], under setting [4], the “ΔTm Run 1” value came out at 0.2 °C. The “ΔTm Run 2” value under setting [5] was -0.2 °C. For the same compound, the “ΔTm Average” value under setting [6] was 0.0 °C.

In the case of `C#Cc1cccc(Nc2ncnc3cc4c(cc23)OCCOCCOCCO4)c1` [Icotinib], the shift in melting temperature (ΔTm) at 10 µM runs as follows: under setting [1], -0.3 °C; under setting [2], -0.2 °C; under setting [3], -0.3 °C.

With `O=C1Nc2ccccc2/C1=C1/Nc2ccccc2C1=O` [Indirubin], the ΔTm at 10 µM was 0 °C (read-out: ΔTm Average), 0.1 °C (read-out: ΔTm Run 1) and -0.1 °C (read-out: ΔTm Run 2).

`Nc1nc(Nc2ccc(S(N)(=O)=O)cc2)nn1C(=O)c1c(F)cccc1F` [JNJ-7706621]: the ΔTm at 10 µM runs as follows: under setting [1], 1.4 °C; under setting [2], 1.7 °C; under setting [3], 1.6 °C.

Consider `Cn1cc(-c2ccc3nnc(C(F)(F)c4ccc5ncccc5c4)n3n2)cn1` [JNJ-38877605], for which the “ΔTm Average” value was -0.3, the “ΔTm Run 1” value is given as -0.1 and the “ΔTm Run 2” value is listed as -0.4.

Turning to `N#Cc1c(NC(=O)c2cccc3ccccc23)sc2c1CCCC2` [JNK Inhibitor IX], the “ΔTm Run 1” value under setting [4] was found to be 0.3 °C. In addition, the “ΔTm Run 2” value under setting [5] is -0.1 °C. Besides, the “ΔTm Average” value under setting [6] is 0.1 °C.

As for `Cc1cc(NC(=O)c2cccc(NC(=O)/C=C/CN(C)C)c2)ccc1Nc1nccc(-c2cccnc2)n1` [JNK-IN-8], the shift in melting temperature (ΔTm) at 10 µM under setting [1] is 0.2 °C, the ΔTm at 10 µM under setting [2] was -0.5 °C and the ΔTm at 10 µM under setting [3] was -0.1 °C.

Turning to `CN([C@@H](Cc1ccc(OS(=O)(=O)c2cccc3cnccc23)cc1)C(=O)N1CCN(c2ccccc2)CC1)S(=O)(=O)c1cccc2cnccc12` [KN-62], the “ΔTm Average” value is recorded as -0.3, the “ΔTm Run 1” value was -0.4 and the “ΔTm Run 2” value was -0.2.

Turning to `COc1ccc(S(=O)(=O)N(CCO)c2ccccc2CN(C)C/C=C/c2ccc(Cl)cc2)cc1.O=P(O)(O)O` [KN-93 Phosphate], the “ΔTm Run 1” value under setting [4] worked out at 0.1 °C. For the same compound, under setting [5], the “ΔTm Run 2” value is -0.5 °C. Moreover, under setting [6], the “ΔTm Average” value was -0.2 °C.

`CCCNC(=O)Nc1ccc(Oc2ncnc3cc(OC)c(OC)cc23)cc1Cl` [KRN 633]: the ΔTm at 10 µM by setting is: under setting [1], 0.1 °C; under setting [2], -0.1 °C; under setting [3], 0 °C.

As to `C[C@@H]1CN(CC(=O)Nc2ccc3c(c2)Cc2cccc(-c4cc(=O)cc(N5CCOCC5)o4)c2S3)C[C@H](C)O1` [KU-60019], the ΔTm at 10 µM under setting [1] was -0.1 °C, the thermal shift (ΔTm) at 10 µM under setting [2] was -0.2 °C and the ΔTm at 10 µM under setting [3] was -0.1 °C.

Regarding `COc1ccc(-c2ccc3c(N4CCOCC4)nc(N4C[C@@H](C)O[C@@H](C)C4)nc3n2)cc1CO` [KU-0063794], the ΔTm at 10 µM amounted to 0.1 °C under setting [1], 0.1 °C under setting [2] and 0.1 °C under setting [3].

For the compound `O=C(c1ccc(/C=C/c2n[nH]c3ccccc23)cc1)N1CCNCC1` [KW-2449], the ΔTm at 10 µM is 0.4 °C under setting [1], 0.4 °C under setting [2] and 0.4 °C under setting [3].

With `O=C(Cc1ccc(-c2ccc(OCCN3CCOCC3)cc2)cn1)NCc1ccccc1` [KX2-391], the ΔTm Average turned out to be 0.1 °C, the ΔTm Run 1 is 0.2 °C and the ΔTm Run 2 came to 0 °C.

For the compound `COc1cc2nccc(Oc3ccc(NC(=O)Nc4ccc(F)cc4F)c(F)c3)c2cc1OC` [Ki8751], under setting [4], the “ΔTm Run 1” value is 0.0 °C. The “ΔTm Run 2” value under setting [5] was -0.2 °C. The “ΔTm Average” value under setting [6] is -0.1 °C.

Consider `COc1ccccc1-c1cc(Nc2cccc(CS(N)(=O)=O)c2)ncn1` [LDC000067], for which the “ΔTm Run 1” value under setting [4] is -0.1 °C. Moreover, under setting [5], the “ΔTm Run 2” value was found to be 0.0 °C. Further, the “ΔTm Average” value under setting [6] was -0.1 °C.

For the compound `Cc1cc(Nc2ncc(Cl)c(Nc3ccccc3S(=O)(=O)C(C)C)n2)c(OC(C)C)cc1C1CCNCC1` [LDK378], the thermal shift (ΔTm) at 10 µM is, setting by setting: under setting [1], 0.4 °C; under setting [2], 0 °C; under setting [3], 0.2 °C.

For `COc1ncccc1-c1cnn2ccc(N3CCN(C(=O)OC(C)C)CC3)nc12` [LP-935509 (AAK1)], under setting [4], the “ΔTm Run 1” value is -0.2 °C. Besides, the “ΔTm Run 2” value under setting [5] was -0.4 °C. Moreover, under setting [6], the “ΔTm Average” value is -0.3 °C.

As to `O=c1cc(N2CCOCC2)oc2c(-c3ccccc3)cccc12` [LY294002], the ΔTm at 10 µM under setting [1] worked out at 0.5 °C, the ΔTm at 10 µM under setting [2] came out at 0.2 °C and the ΔTm at 10 µM under setting [3] stood at 0.3 °C.

With `CC(C)(C)Cn1c(N)nc2ccc(-c3[nH]c(C(C)(C)C)nc3-c3ccc(F)cc3)nc21` [LY2228820], the ΔTm at 10 µM is, setting by setting: under setting [1], -0.3 °C; under setting [2], -0.3 °C; under setting [3], -0.3 °C.

In the case of `Cc1cc(Nc2cc(CN3CCOCC3)c3nc(C)c(Cc4ccc(Cl)cc4F)n3n2)n[nH]1` [LY2784544], the ΔTm at 10 µM runs as follows: under setting [1], -0.3 °C; under setting [2], -0.4 °C; under setting [3], -0.4 °C.

As for `CCN1CCN(Cc2ccc(Nc3ncc(F)c(-c4cc(F)c5nc(C)n(C(C)C)c5c4)n3)nc2)CC1` [LY2835219], the ΔTm at 10 µM reads like this: under setting [1], 2.2 °C; under setting [2], 2.1 °C; under setting [3], 2.2 °C.

For the compound `CS(=O)(=O)CCNCc1ccc(-c2ccc3ncnc(Nc4ccc(OCc5cccc(F)c5)c(Cl)c4)c3c2)o1.Cc1ccc(S(=O)(=O)O)cc1.Cc1ccc(S(=O)(=O)O)cc1` [Lapatinib (GW-572016) Ditosylate], the “ΔTm Run 1” value under setting [4] worked out at 0.3 °C. The “ΔTm Run 2” value under setting [5] is 0.0 °C. Moreover, the “ΔTm Average” value under setting [6] was determined as 0.1 °C.

Regarding `COc1cc2nccc(Oc3ccc(NC(=O)NC4CC4)c(Cl)c3)c2cc1C(N)=O` [Lenvatinib (E7080)], under setting [4], the “ΔTm Run 1” value was -0.1 °C. In addition, the “ΔTm Run 2” value under setting [5] was -0.4 °C. The “ΔTm Average” value under setting [6] was -0.3 °C.

Consider `Cc1ccc(F)c(NC(=O)Nc2ccc(-c3cccc4[nH]nc(N)c34)cc2)c1` [Linifanib (ABT-869)], for which the “ΔTm Run 1” value under setting [4] worked out at 0.3 °C. For the same compound, the “ΔTm Run 2” value under setting [5] was 0.6 °C. Also, under setting [6], the “ΔTm Average” value came to 0.4 °C.

Regarding `Cc1c(F)cc(C(=O)NC2CC2)cc1-c1ccc(C(=O)NCC(C)(C)C)cn1` [Losmapimod (GW856553X)], the “ΔTm Run 1” value under setting [4] was found to be 0.4 °C. Further, the “ΔTm Run 2” value under setting [5] amounted to 0.1 °C. For the same compound, the “ΔTm Average” value under setting [6] was determined as 0.2 °C.

As for `Cn1cnc2c(F)c(Nc3ccc(Br)cc3F)c(C(=O)NOCCO)cc21` [MEK162 (ARRY-162)], the “ΔTm Run 1” value under setting [4] is -0.2 °C. Besides, the “ΔTm Run 2” value under setting [5] was -0.4 °C. Moreover, the “ΔTm Average” value under setting [6] was -0.3 °C.

`COCCNCc1ccc(-c2cc3nccc(Oc4ccc(NC(=S)NC(=O)Cc5ccc(F)cc5)cc4F)c3s2)nc1` [MGCD-265]: the ΔTm at 10 µM by setting is: under setting [1], 0 °C; under setting [2], -0.1 °C; under setting [3], -0.1 °C.

In the case of `Cl.Cl.NC1(c2ccc(-c3nc4ccn5c(=O)[nH]nc5c4cc3-c3ccccc3)cc2)CCC1` [MK-2206 2HCl], under setting [4], the “ΔTm Run 1” value was -0.1 °C. Further, under setting [5], the “ΔTm Run 2” value is -0.1 °C. Further, the “ΔTm Average” value under setting [6] is -0.1 °C.

Regarding `O=C(c1cccc(Cl)c1F)N1CCN(Cc2cccc(Nc3nccs3)n2)CC1` [MK-8745], under setting [4], the “ΔTm Run 1” value stood at 1.1 °C. Besides, under setting [5], the “ΔTm Run 2” value was determined as 1.0 °C. In addition, under setting [6], the “ΔTm Average” value amounted to 1.0 °C.

Take `Cn1cc(-c2cnn3c(N)c(Br)c([C@@H]4CCCNC4)nc23)cn1` [MK-8776 (SCH 900776)]: the ΔTm Average amounted to 0.3 °C, the ΔTm Run 1 turned out to be 0.5 °C and the ΔTm Run 2 was determined as 0 °C.
